# Laboratory results published in patent US9598424B2 (Takeda Pharmaceutical Company Limited, priority 2014, dated 2017).
# Legend:
# Full length human TBK1 = target: T1, Full length human TBK1 (Homo sapiens, UniProt Q9UHD2); assay: Inhibition of TBK1 Enzyme (Caliper microfluidic assay); type: biochemical; details: 25 μM ATP, 60 min at RT; -log(IC50), IC50 molar; read-out: TBK1 Inhibition (pIC50) (converted)
# T1 construct: Full length human TBK1 with an N-terminal His-tag; His-tag (N); made in house; host or cells: Sf9 insect cells (baculovirus, pFastBac1)
# T1 sequence (Q9UHD2 1-729): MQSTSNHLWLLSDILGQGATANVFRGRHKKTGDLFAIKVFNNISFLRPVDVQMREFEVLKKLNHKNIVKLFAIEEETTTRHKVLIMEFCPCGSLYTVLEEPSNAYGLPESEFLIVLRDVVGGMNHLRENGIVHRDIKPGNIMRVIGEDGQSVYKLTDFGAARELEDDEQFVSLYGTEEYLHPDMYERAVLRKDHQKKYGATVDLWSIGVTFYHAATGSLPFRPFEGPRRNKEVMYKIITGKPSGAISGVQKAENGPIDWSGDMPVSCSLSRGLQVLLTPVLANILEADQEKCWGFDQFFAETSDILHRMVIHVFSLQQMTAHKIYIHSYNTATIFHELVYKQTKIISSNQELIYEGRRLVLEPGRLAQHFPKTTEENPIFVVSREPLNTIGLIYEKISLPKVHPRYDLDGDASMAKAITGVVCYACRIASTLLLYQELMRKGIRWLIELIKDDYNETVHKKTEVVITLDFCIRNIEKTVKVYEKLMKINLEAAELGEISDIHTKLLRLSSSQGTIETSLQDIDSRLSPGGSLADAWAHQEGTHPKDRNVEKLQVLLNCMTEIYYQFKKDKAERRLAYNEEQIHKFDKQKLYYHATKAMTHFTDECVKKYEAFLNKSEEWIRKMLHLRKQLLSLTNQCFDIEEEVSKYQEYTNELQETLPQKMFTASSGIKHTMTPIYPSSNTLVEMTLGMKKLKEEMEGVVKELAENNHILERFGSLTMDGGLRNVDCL
# Protocol: Full length human TBK1 with an N-terminal His-tag was cloned into the pFastBacl vector and was transfected into Sf9 cells. 72 hours later the virus was harvested and amplified through two additional rounds of infections. Then 400 ml of the resulting virus stock was used to infect 10L of Sf9 cells at a density of 2×10^6 cells/ml. Cell pellets were harvested 48 hours post infection and were lysed by freeze-thaw, homogenization and sonication in binding buffer (25 mM Tris pH7.6, 1 M NaCl, 10 mM imidazole, 0.5 mM TCEP) plus 0.1% Triton X-100 and complete protease inhibitor cocktail. The lysate was spun and the supernatant was purified with a HisTrap FF crude and a Superdex 200 pg column.
# TBK1 inhibition is determined using a 384 well plate format in buffer containing 20 mM Hepes, pH 7.4, 10 mM MgCl2, 1 mM EDTA, 0.01% Brij-L23, 1 mM DTT. Each test compound is prepared in DMSO using 2.5-fold serial dilutions for 11 data points, which are added to the buffer so that each dilution contains 1% DMSO. To each well is added 2 μL of 1 μm 5FAM-DRHDSGLDSMKDE-NH2 (in buffer), 2 μL of diluted test compound (1% DMSO in buffer), and 5 μL of 3 nM TBK1 and 25 μM ATP (in buffer). The reaction mixture is incubated at RT for 60 min, and quenched by adding 20 mM Hepes, pH 7.4, 10 mM MgCl2, 1 mM EDTA, 0.01% Brij-L23, 1 mM DTT+25 mM EDTA. To quantify the fluorescent-labeled substrate and product following reaction, the test plate is loaded on a Caliper LC-3000, which measures percent of conversion by microfluidic-based separation. Corresponding IC50 values are calculated by non-linear curve fitting of the compound concentrations and percent of inhibition to the standard IC50 equation and reported as pIC50, i.e., −log(IC50), where IC50 is the molar concentration.
# TBK1 = target: T2, TBK1 (Homo sapiens, UniProt Q9UHD2); assay: Inhibition of TBK1 in Cells (TLR3 driven ISRE β-lactamase reporter assay); type: cell-based; details: poly IC-LMW stimulation 16 hrs; -log(EC50), EC50 molar; read-out: Inhibition of TBK1 in cells pEC50 (EC) (converted)
# T2 construct: host or cells: RA1-ISRE beta-lactamase reporter cells
# T2 sequence (Q9UHD2 1-729): T1 sequence (Q9UHD2 1-729)
# Protocol: TBK1 inhibition is determined using a TLR3 driven RA1-ISRE β-lacatamase reporter assay (Life Technologies). In the assay 50,000 cells/well are plated in black clear bottom 384 well plate. Each test compound is prepared in DMSO using 2.5-fold serial dilutions for 11 data points, which are then added to the media. Cells are stimulated with 0.15 mg/ml poly IC-LMW (Invivogen) for 16 hrs. Reporter activity is detected using the LiveBLAzer-FRET B/G CCF4-AM substrate (Life Technologies) and the plate is read using the Spectramax M5 instrument. Corresponding EC50 values are calculated by non-linear curve fitting of the compound concentrations and percent of inhibition to the standard EC50 equation and reported as pEC50, i.e., −log(EC50), where EC50 is the molar concentration.
IC50 (Full length human TBK1) [nM],EC50 (TBK1) [nM],SMILES
50.1,3390,"O=C(NCC(F)(F)F)c1nc(-c2ccc3nc(NC(=O)C4CC4)cn3n2)cs1 [Example 21, 4-(2-(cyclopropanecarboxamido)imidazo[1,2-b]pyridazin-6-yl)-N-(2,2,2-trifluoroethyl)thiazole-2-carboxamide]"
79.4,5370,"Cc1sc(C(=O)NCC(F)(F)F)cc1-c1ccc2nc(NC(=O)C3CC3)cn2n1 [Example 23, 4-(2-(cyclopropanecarboxamido)imidazo[1,2-b]pyridazin-6-yl)-5-methyl-N-(2,2,2-trifluoroethyl)thiophene-2-carboxamide]"
25.1,468,"CC(NC(=O)c1nc(-c2ccc3nc(NC(=O)C4CC4)cn3c2)c[nH]1)C(F)(F)F (centres unmarked) [Example 24, 4-(2-(cyclopropanecarboxamido)imidazo[1,2-a]pyridin-6-yl)-N-(1,1,1-trifluoropropan-2-yl)-1H-imidazole-2-carboxamide]"
79.4,759,"O=C(NCC(F)(F)F)c1cc(-c2ccc3nc(NC(=O)C4CC4)cn3c2)sn1 [Example 26, 5-(2-(cyclopropanecarboxamido)imidazo[1,2-a]pyridin-6-yl)-N-(2,2,2-trifluoroethyl)isothiazole-3-carboxamide]"
31.6,3720,"O=C(NCC(F)F)c1cc(-c2ccc3nc(NC(=O)C4CC4)cn3c2)n[nH]1 [Example 27, 5-(2-(cyclopropanecarboxamido)imidazo[1,2-a]pyridin-6-yl)-N-(2,2-difluoroethyl)-1H-pyrazole-3-carboxamide]"
12.6,676,"CN(CC(F)(F)F)C(=O)c1cc(-c2ccc3nc(NC(=O)C4CC4)cn3c2)cs1 [Example 28, 4-(2-(cyclopropanecarboxamido)imidazo[1,2-a]pyridin-6-yl)-N-methyl-N-(2,2,2-trifluoroethyl)thiophene-2-carboxamide]"
39.8,6760,"Cc1sc(C(=O)NCC(F)(F)F)cc1-c1ccc2nc(NC(=O)C3CC3)cn2c1 [Example 29, 4-(2-(cyclopropanecarboxamido)imidazo[1,2-a]pyridin-6-yl)-5-methyl-N-(2,2,2-trifluoroethyl)thiophene-2-carboxamide]"
25.1,6460,"Cc1sc(C(=O)NCC(F)(F)F)cc1-c1cn2cc(NC(=O)C3CC3)nc2cn1 [Example 30, 4-(2-(cyclopropanecarboxamido)imidazo[1,2-a]pyrazin-6-yl)-5-methyl-N-(2,2,2-trifluoroethyl)thiophene-2-carboxamide]"
5.01,120,"O=C(NCC(F)(F)F)c1cc(-c2ccc3nc(NC(=O)C4CC4)cn3c2)cs1 [Example 32, 4-(2-(cyclopropanecarboxamido)imidazo[1,2-a]pyridin-6-yl)-N-(2,2,2-trifluoroethyl)thiophene-2-carboxamide]"
5.01,269,"O=C(NCC(F)(F)F)c1cc(-c2cn3cc(NC(=O)C4CC4)nc3cn2)cs1 [Example 33, 4-(2-(cyclopropanecarboxamido)imidazo[1,2-a]pyrazin-6-yl)-N-(2,2,2-trifluoroethyl)thiophene-2-carboxamide]"
20,513,"O=C(NCC(F)(F)F)c1ccn(-c2ccc3nc(NC(=O)C4CC4)cn3c2)n1 [Example 34, 1-(2-(cyclopropanecarboxamido)imidazo[1,2-a]pyridin-6-yl)-N-(2,2,2-trifluoroethyl)-1H-pyrazole-3-carboxamide]"
79.4,5250,"O=C(NCC(F)F)c1ccn(-c2ccc3nc(NC(=O)C4CC4)cn3c2)n1 [Example 35, 1-(2-(cyclopropanecarboxamido)imidazo[1,2-a]pyridin-6-yl)-N-(2,2-difluoroethyl)-1H-pyrazole-3-carboxamide]"
10,245,"O=C(NCC(F)(F)F)c1ccn(-c2cn3cc(NC(=O)C4CC4)nc3cn2)n1 [Example 36, 1-(2-(cyclopropanecarboxamido)imidazo[1,2-a]pyrazin-6-yl)-N-(2,2,2-trifluoroethyl)-1H-pyrazole-3-carboxamide]"
25.1,1170,"O=C(NCC(F)F)c1ccn(-c2cn3cc(NC(=O)C4CC4)nc3cn2)n1 [Example 38, 1-(2-(cyclopropanecarboxamido)imidazo[1,2-a]pyrazin-6-yl)-N-(2,2-difluoroethyl)-1H-pyrazole-3-carboxamide]"
251,> 50100,"O=C(NCC(F)(F)F)c1ccn(-c2ccc3nc(NC(=O)C4CC4)cn3n2)n1 [Example 39, 1-(2-(cyclopropanecarboxamido)imidazo[1,2-b]pyridazin-6-yl)-N-(2,2,2-trifluoroethyl)-1H-pyrazole-3-carboxamide]"
31.6,708,"O=C(NCC(F)(F)F)c1cnn(-c2ccc3nc(NC(=O)C4CC4)cn3c2)c1 [Example 40, 1-(2-(cyclopropanecarboxamido)imidazo[1,2-a]pyridin-6-yl)-N-(2,2,2-trifluoroethyl)-1H-pyrazole-4-carboxamide]"
100,5130,"CC(F)(F)CNC(=O)c1cn(-c2ccc3nc(NC(=O)C4CC4)cn3c2)cn1 [Example 42, 1-(2-(cyclopropanecarboxamido)imidazo[1,2-a]pyridin-6-yl)-N-(2,2-difluoropropyl)-1H-imidazole-4-carboxamide]"
50.1,2340,C[C@@H](NC(=O)c1cn(-c2ccc3nc(NC(=O)C4CC4)cn3c2)cn1)C(F)(F)F [Example 43]
3.98,214,"O=C(NCC(F)(F)F)c1cc(-c2ccc3nc(NC(=O)C4CC4)cn3n2)cs1 [Example 44, 4-(2-(cyclopropanecarboxamido)imidazo[1,2-b]pyridazin-6-yl)-N-(2,2,2-trifluoroethyl)thiophene-2-carboxamide]"
12.6,479,"O=C(NCC(F)(F)F)c1ncc(-c2ccc3nc(NC(=O)C4CC4)cn3c2)[nH]1 [Example 50, 4-(2-(cyclopropanecarboxamido)imidazo[1,2-a]pyridin-6-yl)-N-(2,2,2-trifluoroethyl)-1H-imidazole-2-carboxamide]"
7.94,490,"O=C(NCC(F)(F)F)c1cc(-c2ccc3nc(NC(=O)C4CC4)cn3c2)[nH]n1 [Example 51, 5-(2-(cyclopropanecarboxamido)imidazo[1,2-a]pyridin-6-yl)-N-(2,2,2-trifluoroethyl)-1H-pyrazole-3-carboxamide]"
6.31,148,"O=C(Nc1cn2cc(-c3cc(C(=O)N4CCC[C@@H]4C(F)(F)F)n[nH]3)ccc2n1)C1CC1 [Example 52, (R)-N-(6-(3-(2-(trifluoromethyl)pyrrolidine-1-carbonyl)-1H-pyrazol-5-yl)imidazo[1,2-a]pyridin-2-yl)cyclopropanecarboxamide]"
